Test results reported in US4812567A, “Polycyclic spiroimides with psychotropic activity” (American Home Products Corporation, priority 1986, dated 1989).
Where a name gives a salt, the structure may show the parent alone.

Tested on: conditioned avoidance (shelf-jump response)
Assay: conditioned avoidance (shelf-jump response) test in rats
Format: in vivo, Male CD rats
Text: A test designed to determine the potential antipsychotic activity of the compounds of this invention is the conditioned avoidance (shelf-jump response) test. Male CD rats (Charles River) maintained at approximately 400-450 gm body weight are used. […] A moveable wall, controlled by a motor, determines whether the rat has access to the shelf at any time during the experiment. The experimental chamber also contains a house light and sonalert. A steel grid floor in the main chamber is wired for presentation of electric shock. Each trial consists of a […]-second warning tone (conditioned stimulus), continuing for an additional fifteen seconds accompanied by electric shock, (unconditioned stimulus). A response (jumping onto the exposed shelf of the upper chamber) occurring during the initial fifteen-second warning tone is considered an avoidance response, while a response occurring during shock delivery is considered an escape response. Trials are presented on a fixed interval schedule of one minute. The session consists of thirty-six trials. Animals are run twice weekly with control sessions always preceding a drug run, and with at least one day intervening. Compounds are administered i.p. or p.o. at appropriate pre-treatment times to a minimum of five rats at each dose level over a range of doses. […] Response counts are summed over all subjects at a given dose. […] This number is expressed as a percentage of the total trials. […] Potential antipsychotic compounds suppress avoidance responding and increase escape responding.

With O=C1CC2(CCCC2)CC(=O)N1CCCCN1CCN(c2cncc(Cl)n2)CC1 [Example 4, 8-[4-[4-(6-Chloro-2-pyrazinyl)-1-piperazinyl]butyl]-8-azaspiro[4,5]decane-7,9-dione dihydrochloride, hydrate] the Active at (orally administered) was 40 mg/kg.

In the case of O=C1CC2(CCC3CCC2C3)C(=O)N1CCCCN1CCN(c2ncccn2)CC1 (centres unmarked) [Example 1, 1'-[4-[4-(2-Pyrimidinyl)-1-piperazinyl]butyl]spiro[bicyclo[3.2.1]octane-2,3'-pyrrolidine]-2',5'-dione, dihydrochloride, hemihydrate], the Active at (i.p.) was 40 mg/kg.

For O=C1CC2(CCCC2)CC(=O)N1CCCCN1CCN(c2ccc(Cl)nn2)CC1 [Example 6, 8-[4-[4-(6-Chloro-3-pyridazinyl]-1-piperazinyl]-8-azaspiro[4,5]decane-7,9-dione dihydrochloride], the Active at (i.p.) was 40 mg/kg.

Compound O=C1CC2(CCCC2)CC(=O)N1CCCCN1CCN(c2nccnc2Cl)CC1 [Example 5, 8-[4-[4-(3-Chloro-2-pyrazinyl)-1-piperazinyl]butyl]-8-azaspiro[4,5]decane-7,9-dione dihydrochloride, hemihydrate] has an Active at (i.p.) of 40 mg/kg.

In the case of “Octahydro-1'-[4-[4-(2-Pyrimidinyl)-1-piperazinyl]butyl]spiro[4,7-methano-5H-indene-5,3'-pyrrolidine]-2',5'-dione, dihydrochloride [Example 2]”, the Active at (i.p.) was 40 mg/kg.
